Test results published in ChEMBL document CHEMBL5230176, “X-ray structure of human aldo-keto reductase 1C3 in complex with a bile acid fused tetrazole inhibitor: experimental validation, molecular docking and structural analysis” (RSC Med Chem, 2023).
Calls of active or inactive are those of the source. No cut-off for these calls is given here.

molecular target: T1, Aldo-keto reductase family 1 member C3 (Homo sapiens) (UniProt P42330); test: Inhibition of 6 His-tagged human AKR1C3 expressed in Escherichia coli BL21 (DE3) cells using 9,10-phenanthrenequinone as substrate assessed as substrate reduction by measuring change in NADPH fluorescence at 33.3 uM incubated for 30 mins by fluorescence spectroscopic analysis relative to control
T1 sequence (whole entry): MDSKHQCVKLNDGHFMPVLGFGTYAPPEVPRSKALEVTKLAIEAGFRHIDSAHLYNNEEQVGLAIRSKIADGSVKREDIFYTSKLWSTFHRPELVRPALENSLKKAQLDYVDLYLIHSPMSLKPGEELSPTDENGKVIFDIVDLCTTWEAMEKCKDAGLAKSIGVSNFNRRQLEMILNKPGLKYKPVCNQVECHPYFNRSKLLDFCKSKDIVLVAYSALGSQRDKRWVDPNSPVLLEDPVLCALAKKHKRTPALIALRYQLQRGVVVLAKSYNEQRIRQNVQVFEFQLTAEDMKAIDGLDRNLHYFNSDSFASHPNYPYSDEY

Row | inhibition | Structure (SMILES)
1 | inactive | C[C@H](CCC(=O)O)[C@H]1CC[C@H]2[C@H]3[C@H](C[C@H](O)[C@]12C)[C@@]1(C)CC[C@@H](O)C[C@H]1Cc1nnnn13
2 | 14.2% | C[C@H](CCC(=O)O)[C@H]1CC[C@H]2[C@H]3[C@H](CC[C@]12C)[C@@]1(C)CC[C@@H](O)C[C@H]1Cc1nnnn13

The next lines start with the compound.

Row | Structure (SMILES) | inhibition
3 | COC(=O)CC[C@@H](C)[C@H]1CC[C@H]2[C@H]3[C@H](C[C@H](OC(C)=O)[C@]12C)[C@@]1(C)CC[C@@H](OC(C)=O)C[C@H]1Cc1nnnn13 | inactive
4 | C[C@H](CCC(=O)O)[C@H]1CC[C@H]2[C@@H]3CC[C@@H]4C[C@H](O)CC[C@]4(C)[C@H]3Cc3nnnn3[C@]12C | 77.9%
5 | CCOC(=O)CC[C@@H](C)[C@H]1CC[C@H]2[C@H]3[C@H](CC[C@]12C)[C@@]1(C)CC[C@@H](OC(C)=O)C[C@H]1Cc1nnnn13 | inactive

molecular target: T2, Aldo-keto reductase family 1 member C2 (Homo sapiens) (UniProt P52895); test: Inhibition of 6 His-tagged human AKR1C2 expressed in Escherichia coli BL21 (DE3) cells using 9,10-phenanthrenequinone as substrate assessed as substrate reduction by measuring change in NADPH consumption at 40 uM incubated for 15 mins by absorbance based spectroscopic analysis relative to control
T2 sequence (whole entry): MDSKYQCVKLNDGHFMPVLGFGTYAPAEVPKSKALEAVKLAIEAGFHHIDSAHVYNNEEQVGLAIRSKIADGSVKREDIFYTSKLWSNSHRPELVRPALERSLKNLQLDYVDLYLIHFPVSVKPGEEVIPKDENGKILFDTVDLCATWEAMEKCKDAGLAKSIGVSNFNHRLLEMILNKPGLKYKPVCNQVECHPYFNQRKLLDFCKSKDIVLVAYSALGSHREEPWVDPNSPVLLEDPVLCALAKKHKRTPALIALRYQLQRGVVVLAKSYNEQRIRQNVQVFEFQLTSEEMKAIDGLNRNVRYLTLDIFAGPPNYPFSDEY

Row | inhibition | Structure (SMILES)
6 | 13% | C[C@H](CCC(=O)O)[C@H]1CC[C@H]2[C@@H]3CC[C@@H]4C[C@H](O)CC[C@]4(C)[C@H]3Cc3nnnn3[C@]12C
